Molecular target: SARS2 protease (Severe acute respiratory syndrome coronavirus 2, UniProt P0DTD1)
Assay: SARS-CoV-2 protease inhibition assay (SARS2 FRET protease assay)
Type: biochemical
Conditions: SARS-CoV-2 protease 25 nM, FRET, peptide substrate 1.3 μM, 30 minutes at 30° C., compounds 20 μM to 1.0 nM; read-out: IC50

Compound	IC50 [nM]
CC(C)C[C@H](NC(=O)O[C@H](c1cccc(F)c1)C(C)(C)c1cccc(Cl)c1)C(=O)N[C@H](C=O)C[C@@H]1CCNC1=O [Compound C269]	70
CC(C)C[C@H](NC(=O)OC(c1ccccc1)C(C)(C)c1cccc(Cl)c1)C(=O)N[C@@H](C[C@@H]1CCNC1=O)C(=O)C(=O)N1CCCCC1 (stereo partly shown) [Compound C270]	4410
CCOCCNC(=O)C(=O)[C@H](C[C@@H]1CCNC1=O)NC(=O)[C@H](CC1CCCCC1)NC(=O)OC(c1ccccc1)C(C)(C)c1cccc(Cl)c1 (stereo partly shown) [Compound C271]	2000
O=C[C@H](C[C@@H]1CCNC1=O)NC(=O)[C@H](CC1CCCCC1)NC(=O)OC(Cc1cccc(Cl)c1)c1cccc(Cl)c1 (stereo partly drawn) [Compound C272, 1,2-Bis(3-chlorophenyl)ethyl ((S)-3-cyclohexyl-1-oxo-1-(((S)-1-oxo-3-((S)-2-oxopyrrolidin-3-yl)propan-2-yl)amino)propan-2-yl)carbamate]	320
CC(C)(c1cccc(Cl)c1)C(OC(=O)N[C@@H](CC1CCCCC1)C(=O)N[C@@H](C[C@@H]1CCNC1=O)C(=O)CO)c1ccccc1 (stereo partly shown) [Compound C273]	5350
CC(C)C[C@H](NC(=O)OC(c1ccccc1)C(C)(C)c1cccc(Cl)c1)C(=O)N[C@@H](C[C@@H]1CCNC1=O)C(=O)C(=O)N1CCNCC1 (stereo partly shown) [Compound C274]	12000
CC(C)C[C@H](NC(=O)O[C@@H](c1ccccc1)C(C)(C)c1cccc(Cl)c1)C(=O)N[C@H](C=O)C[C@@H]1CCNC1=O [Compound C275]	20
CC(C)C[C@H](NC(=O)O[C@H](c1ccccc1)C(C)(C)c1cccc(Cl)c1)C(=O)N[C@H](C=O)C[C@@H]1CCNC1=O [Compound C276]	60
CC(C)C[C@H](NC(=O)OC(c1ccccc1)C1(c2cccc(Cl)c2)CCC1)C(=O)N[C@H](C=O)C[C@@H]1CCNC1=O (stereo partly shown) [Compound C277]	710
CC(C)C[C@H](NC(=O)OC(c1ccccc1)C1(c2cccc(Cl)c2)CCCC1)C(=O)N[C@H](C=O)C[C@@H]1CCNC1=O (stereo partly shown) [Compound C278]	20
CC(C)C[C@H](NC(=O)OC(c1ccccc1)C(F)(F)c1cccc(Cl)c1)C(=O)N[C@@H](C[C@@H]1CCNC1=O)C(=O)CO (stereo partly shown) [Compound C279]	6590
CC(C)C[C@H](NC(=O)OC(Cc1ccccc1)c1ccccc1)C(=O)N[C@@H](C[C@@H]1CCNC1=O)C(=O)C(=O)N1CCN(C(=O)OC(C)(C)C)CC1 (stereo partly shown) [Compound C280]	> 20000
CC1(C)CC(CC(NC(=O)[C@H](CC2CCCCC2)NC(=O)OC(c2cccc(Cl)c2)C(C)(C)c2cccc(Cl)c2)C(=O)C(=O)NC2CC2)C(=O)N1 (stereo partly shown) [Compound C281]	2480
CC(C)C[C@H](NC(=O)OC(Cc1cccc(Cl)c1)c1cccc(Cl)c1)C(=O)N[C@H](C=O)C[C@@H]1CCNC1=O (stereo partly drawn) [Compound C282, 1,2-Bis(3-chlorophenyl)ethyl ((S)-4-methyl-1-oxo-1-(((S)-1-oxo-3-((S)-2-oxopyrrolidin-3-yl)propan-2-yl)amino)pentan-2-yl)carbamate]	40
CC(C)C[C@H](NC(=O)OC(Cc1ccccc1)c1ccccc1)C(=O)N[C@@H](C[C@@H]1CCNC1=O)C(=O)C(=O)N1CCNCC1 (stereo partly shown) [Compound C283]	> 20000
CC(C)(c1cccc(Cl)c1)C(OC(=O)N[C@@H](Cc1ccccc1)C(=O)N[C@@H](C[C@@H]1CCNC1=O)C(=O)C(=O)NC1CC1)c1ccccc1 (stereo partly shown) [Compound C284]	1570
CC(C)C[C@H](NC(=O)O[C@@H](c1cccc(F)c1)C(C)(C)c1cccc(Cl)c1)C(=O)N[C@@H](C[C@@H]1CCNC1=O)C(=O)C(=O)NC1CC1 [Compound C285]	80
CC(C)C[C@H](NC(=O)OC(c1cccc(Cl)c1)C(C)(C)c1cccc(Cl)c1)C(=O)N[C@@H](C[C@@H]1CCNC1=O)C(=O)C(=O)NC1CC1 (stereo partly shown) [Compound C286]	70
CCN1CCN(C(=O)C(=O)[C@H](C[C@@H]2CCNC2=O)NC(=O)[C@H](CC(C)C)NC(=O)OC(c2ccccc2)C(C)(C)c2cccc(Cl)c2)CC1 (stereo partly shown) [Compound C287]	> 20000
CC1(C)CC(CC(NC(=O)[C@H](CC2CCCCC2)NC(=O)OC(c2cccc(Cl)c2)C(C)(C)c2cccc(Cl)c2)C(=O)C(N)=O)C(=O)N1 (stereo partly shown) [Compound C288]	2230
CCCCC[C@H](NC(=O)OC(c1ccccc1)C(C)(C)c1cccc(Cl)c1)C(=O)N[C@@H](C[C@@H]1CCNC1=O)C(=O)C(=O)NC1CC1 (stereo partly shown) [Compound C289]	370
O=C(N[C@@H](CC1CCCCC1)C(=O)NC(CC1CC2(CCC2)NC1=O)C(=O)C(=O)NC1CC1)OCc1cccc(Cl)c1 (stereo partly drawn) [Compound C290, 3-Chlorobenzyl ((2S)-3-cyclohexyl-1-((4-(cyclopropylamino)-3,4-dioxo-1-(6-oxo-5-azaspiro[3.4]octan-7-yl)butan-2-yl)amino)-1-oxopropan-2-yl)carbamate]	508
